Source: the CheMixHub viscosity set
Values joined by “and” are separate entries in the source; they are usually repeats but may differ in a detail not shown here. Identical values can stand only once. ± gives the uncertainty stated by the source.

Compound	viscosity (298.15 K, 101 kPa) [mPa·s]	viscosity (313.15 K, 100 kPa)	viscosity (293.15 K, 101 kPa)	viscosity (303.15 K, 101.3 kPa)	viscosity (313.15 K, 101 kPa)	viscosity (318.15 K, 101 kPa)	viscosity (323.15 K, 101 kPa)	viscosity (293.15 K, 101.33 kPa) [mPa·s]	viscosity (303.15 K, 100 kPa) [mPa·s]	viscosity (313.15 K, 101.33 kPa)	also measured
CC1CCCO1 (stereo not given)	0.463 ± 0.0055	–	–	–	–	–	–	–	–	–	viscosity (298.15 K, 101.33 kPa): 0.4753 ± 0.005 mPa·s
ClCC(Cl)Cl	1.061 ± 0.01	0.887 ± 0.027 mPa·s	–	–	–	–	–	–	–	–	viscosity (308.15 K, 100 kPa): 0.953 ± 0.03 mPa·s
CN(C)CCO	3.78 ± 1.5	–	4.27 ± 1.7 mPa·s	2.419 ± 0.48 mPa·s	2.53 ± 1 mPa·s and 2.186 ± 0.017 mPa·s	2.27 ± 0.91 mPa·s and 1.938 ± 0.016 mPa·s	2.04 ± 0.82 mPa·s and 1.723 ± 0.015 mPa·s	–	–	–	viscosity (303.15 K, 101 kPa): 3.24 ± 1.3 mPa·s and 2.835 ± 0.02 mPa·s; viscosity (308.15 K, 101 kPa): 2.91 ± 1.2 mPa·s and 2.485 ± 0.019 mPa·s; viscosity (313.15 K, 101.3 kPa): 2.023 ± 0.4 mPa·s; viscosity (323.15 K, 101.3 kPa): 1.734 ± 0.35 mPa·s
C=CC(=O)OCCCC	–	0.6833 ± 0.011 mPa·s	0.8996 ± 0.037 mPa·s and 0.868 ± 0.07 mPa·s	–	0.6833 ± 0.028 mPa·s and 0.658 ± 0.07 mPa·s and 0.684 ± 0.009 mPa·s	0.6387 ± 0.026 mPa·s and 0.618 ± 0.07 mPa·s	–	0.8763 ± 0.012	0.782 ± 0.011	0.6609 ± 0.01 mPa·s	viscosity (293.15 K, 100 kPa): 0.8996 ± 0.012 mPa·s; viscosity (298.15 K, 100 kPa): 0.8385 ± 0.011 mPa·s; viscosity (303.15 K, 101 kPa): 0.782 ± 0.032 mPa·s and 0.751 ± 0.07 mPa·s and 0.781 ± 0.01 mPa·s; viscosity (303.15 K, 101.33 kPa): 0.7568 ± 0.011 mPa·s; viscosity (308.15 K, 100 kPa): 0.7306 ± 0.011 mPa·s; viscosity (318.15 K, 100 kPa): 0.6387 ± 0.011 mPa·s
CCCC=O	–	–	–	–	–	–	–	–	–	–	viscosity (298.1 K, 101 kPa): 0.403 ± 0.015 mPa·s
CCCCCOC(C)=O	–	–	–	0.7522 ± 0.0063 mPa·s and 0.7522 ± 0.0049 mPa·s	0.663 ± 0.007 mPa·s	–	0.589 ± 0.008 mPa·s	0.931 ± 0.15	–	0.676 ± 0.13 mPa·s	viscosity (303.15 K, 101.33 kPa): 0.805 ± 0.14 mPa·s; viscosity (323.15 K, 101.33 kPa): 0.552 ± 0.12 mPa·s
C1CCC2=[NH+]CCCN2CC1.c1nc[n-]n1	–	–	–	–	–	–	–	–	1356 ± 170	–	–
CCCCCOC(=O)CCC	1.07 ± 0.01	–	–	–	0.86 ± 0.009 mPa·s	–	–	–	–	–	–
CCCCCC	–	0.259 ± 0.014 mPa·s and 0.26 ± 0.01 mPa·s and 0.257 ± 0.015 mPa·s	0.31 ± 0.006 mPa·s and 0.3119 ± 0.0084 mPa·s	0.2776 ± 0.0023 mPa·s and 0.286 ± 0.002 mPa·s and 0.294 ± 0.024 mPa·s	–	0.3 ± 0.04 mPa·s and 0.245 ± 0.02 mPa·s	0.2333 ± 0.0036 mPa·s and 0.235 ± 0.007 mPa·s	0.31 ± 0.0062	0.2941 ± 0.005	0.2391 ± 0.003 mPa·s and 0.257 ± 0.009 mPa·s and 0.257 ± 0.0051 mPa·s	viscosity (298 K, 101 kPa): 0.31 ± 0.01 mPa·s; viscosity (303 K, 101 kPa): 0.2673 ± 0.0017 mPa·s; viscosity (303 K, 101.33 kPa): 0.273 ± 0.007 mPa·s and 0.2865 ± 0.012 mPa·s; viscosity (308.15 K, 101 kPa): 0.268 ± 0.02 mPa·s and 0.265 ± 0.007 mPa·s; viscosity (313 K, 101 kPa): 0.2482 ± 0.0016 mPa·s; viscosity (313 K, 101.33 kPa): 0.247 ± 0.006 mPa·s; viscosity (313.15 K, 101.3 kPa): 0.274 ± 0.023 mPa·s; viscosity (318.15 K, 101.33 kPa): 0.247 ± 0.008 mPa·s; viscosity (323 K, 101 kPa): 0.2285 ± 0.0015 mPa·s; viscosity (323 K, 101.33 kPa): 0.226 ± 0.006 mPa·s; viscosity (323.15 K, 100 kPa): 0.2345 ± 0.0027 mPa·s and 0.231 ± 0.003 mPa·s; viscosity (323.15 K, 101.3 kPa): 0.251 ± 0.022 mPa·s; viscosity (323.15 K, 101.33 kPa): 0.2524 ± 0.003 mPa·s
